One test addresses T1, CB1 receptor (Rattus norvegicus, UniProt P20272).
T1 construct: Whole rat brains or dissected regions from live CD rats; tissue Charles River or Pel-Freez Biologicals; host or cells: whole rat brain (CD rats), P2 membrane
Kind of test: Radioligand displacement in whole rat brain (CB1) membrane preparations. The test is classed as binding. Particulars: Ki, displacement of 3H-CP55940, whole rat brain; 3H-CP55940; Table 4, parallel synthesis analogs, n = 1, concentration assumes 100% yield. The text has this: CB1 receptor affinity in rat brain.
Methods—membrane preparation from brain. The methods for tissue preparation are essentially those described by Devane et al. (1988) as modified by Compton et al. (1993) and later by Thomas et al. (1998). Whole rat brains or dissected regions from live CD rats from Charles River or Pel-Freez Biologicals (Rogers, Ark.), or human brain sections obtained from the National Disease Research Institute, were allowed to thaw to room temperature on ice. Both whole brain and dissected brain regions were used because different brain regions may express different cannabinoid receptor subtypes (Skaper et al., 1996; Thomas et al., 1998). The tissue was homogenized with a Kontes Potter-Elvehjem glass-Teflon grinding system (Fisher Scientific, Springfield, N.J.) in buffer 1 (320 mM sucrose, 2 mM EDTA, 5 mM MgCl2. The homogenate was centrifuged at 1600 g for 10 min. The supernatant was saved and combined with the two subsequent supernatants obtained from washing and 1600 g centrifugation of the P1 pellet. The combined supernatant fractions were then centrifuged at 39,000 g for 15 min. The P2 pellet was resuspended in 50 mL of buffer 2 (50 mM Tris.HCl, 2 mM EDTA, 5 mM MgCl2, pH 7.0), incubated at 37° C. for 10 min, then centrifuged at 23,000 g for 10 min. The P2 membrane was resuspended in 50 mL of buffer 2, incubated at 30° C. for 40 min, then centrifuged at 11,000 g for 15 min. The final wash-treated P2 pellet was resuspended in assay buffer 3 (50 mM Tris.HCl, 1 mM EDTA, 3 MM MgCl2, pH 7.4). Protein concentrations were determined by the method of Bradford (1976) using Coomassie brilliant blue dye (Bio-Rad, Richmond, Calif.) and BSA standards (bovine serum albumin, fatty acid free, Sigma Chemical Co., St. Louis, Mo.) prepared in assay buffer 3. The membrane preparation was divided into aliquots and stored at −80° C. For use in the binding assay, an aliquot of frozen membranes was thawed on ice and diluted to a concentration of ca. 0.2 mg/mL in assay buffer.
Methods—binding assay in brain membrane preparation. The methods for ligand binding are essentially those described by Devane et al. (1988) with the exception that we used a filtration assay. […] All cannabinoid analogs were prepared by suspension in buffer A from a 1-5 mg/mL ethanolic stock. Following incubation at 30° C. for 1 h, binding was terminated by vacuum filtration through pretreated filters in a 96-well sampling manifold (Millipore, Bedford, Mass.). Reaction vessels were washed at least 3 times with 1 mL of ice cold buffer B (50 mM Tris.HCl, 1 mg/mL BSA). The filter plates were air-dried and sealed on the bottom. Liquid scintillant was added to the wells and the top sealed. After incubating the plates in cocktail for at least 2 h, the radioactivity present was determined by liquid scintillation spectrometry. Assays were done in duplicate, and results represent the combined data of three to six independent experiments. All assays were performed in polypropylene test tubes. The GF/C glassfiber filter plates (Packard, Meriden, Conn.) were pretreated in buffer B for at least 1 h.
(§1) Data analysis. Saturation and displacement data were analyzed by unweighted nonlinear regression of receptor binding data. For displacement studies, curve-fitting and IC50 calculation were done with GraphPad Prism (GraphPad Software, Inc., San Diego, Calif.), which fits the data to one and two-site models and compares the two fits statistically. A similar approach was used for the analysis of isotherm data for calculation of Kd's. A two-site fit was accepted only if it was statistically significant (p<0.05) and the following results were not observed:
(§2) IC50 values were then converted to Ki values by reported methods (Cheng and Prusoff, 1973). The statistical evaluation of curve-fitting data allowed for a non-arbitrary conclusion based on the displacement data.
T1 sequence (P20272 whole entry): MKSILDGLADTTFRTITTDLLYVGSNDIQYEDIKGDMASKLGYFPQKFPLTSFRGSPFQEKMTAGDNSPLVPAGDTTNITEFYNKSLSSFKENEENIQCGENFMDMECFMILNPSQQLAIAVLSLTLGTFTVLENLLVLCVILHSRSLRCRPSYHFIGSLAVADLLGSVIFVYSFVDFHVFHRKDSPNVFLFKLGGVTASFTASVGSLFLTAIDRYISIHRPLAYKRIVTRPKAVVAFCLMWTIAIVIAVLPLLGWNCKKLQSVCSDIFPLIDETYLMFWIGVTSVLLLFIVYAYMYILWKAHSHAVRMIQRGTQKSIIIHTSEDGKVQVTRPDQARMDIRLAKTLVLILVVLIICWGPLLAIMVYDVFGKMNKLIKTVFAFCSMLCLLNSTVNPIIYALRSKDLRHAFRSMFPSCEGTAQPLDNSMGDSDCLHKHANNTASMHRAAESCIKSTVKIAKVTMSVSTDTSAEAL
T2 sequence (P21554 whole entry): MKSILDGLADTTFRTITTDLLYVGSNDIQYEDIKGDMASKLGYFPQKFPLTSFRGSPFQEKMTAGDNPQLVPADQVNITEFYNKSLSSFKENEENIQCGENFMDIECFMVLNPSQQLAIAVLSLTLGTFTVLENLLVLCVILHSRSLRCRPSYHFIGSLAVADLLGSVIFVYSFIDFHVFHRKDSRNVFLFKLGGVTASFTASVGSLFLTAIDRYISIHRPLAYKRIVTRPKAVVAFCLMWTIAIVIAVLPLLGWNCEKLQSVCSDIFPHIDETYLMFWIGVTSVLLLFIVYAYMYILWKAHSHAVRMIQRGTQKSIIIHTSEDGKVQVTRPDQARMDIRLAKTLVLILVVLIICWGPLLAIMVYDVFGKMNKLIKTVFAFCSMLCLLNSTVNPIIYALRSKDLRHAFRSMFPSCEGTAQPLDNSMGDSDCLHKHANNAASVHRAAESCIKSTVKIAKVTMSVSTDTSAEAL
In general, Ki refers to a dissociation constant, usually derived from enzyme kinetics or from competition with a known ligand. A high value points to a looser hold on the target. As to `CC(C)=CCC/C(C)=C/CNC(=O)c1nn(-c2ccc(Cl)cc2Cl)c(-c2ccc(Cl)cc2)c1C` [AKS-10262-2], the affinity corresponds to a Ki of 48.1 nM.
Still for that read-out and setting: in the case of `CCCCCC(CC)NC(=O)c1nn(-c2ccc(Cl)cc2Cl)c(-c2ccc(Cl)cc2)c1C` (stereo not drawn) [AKS-10262-5] it was 19.6 nM.
Still for that read-out and setting: with `CCCCCCCCCCNC(=O)c1nn(-c2ccc(Cl)cc2Cl)c(-c2ccc(Cl)cc2)c1C` [BT-1] the figure was 92.8 nM.

The same test, now with this note: Ki, displacement of 3H-SR141716A, whole rat brain; 3H-SR141716A; Table 4, parallel synthesis analogs, n = 1, concentration assumes 100% yield.
`CC(C)=CCC/C(C)=C/CNC(=O)c1nn(-c2ccc(Cl)cc2Cl)c(-c2ccc(Cl)cc2)c1C` [AKS-10262-2] gave a Ki of 20.1 nM.
The same measure, in the same setting: in the case of `CCCCCC(CC)NC(=O)c1nn(-c2ccc(Cl)cc2Cl)c(-c2ccc(Cl)cc2)c1C` (stereo not drawn) [AKS-10262-5] it was 8.6 nM.
Same read-out and setting: with `CCCCCCCCCCNC(=O)c1nn(-c2ccc(Cl)cc2Cl)c(-c2ccc(Cl)cc2)c1C` [BT-1] the figure was 45 nM.

The same test, now with this note: Ki, displacement of 3H-WIN55212-2, whole rat brain; 3H-WIN55212-2; Table 4, parallel synthesis analogs, n = 1, concentration assumes 100% yield.
In turn, `CC(C)=CCC/C(C)=C/CNC(=O)c1nn(-c2ccc(Cl)cc2Cl)c(-c2ccc(Cl)cc2)c1C` [AKS-10262-2] displayed an inhibition constant Ki of 40.5 nM.
The same measure, in the same setting: with `CCCCCC(CC)NC(=O)c1nn(-c2ccc(Cl)cc2Cl)c(-c2ccc(Cl)cc2)c1C` (stereo not drawn) [AKS-10262-5] the figure was 25.8 nM.
Same read-out and setting: in the case of `CCCCCCCCCCNC(=O)c1nn(-c2ccc(Cl)cc2Cl)c(-c2ccc(Cl)cc2)c1C` [BT-1] it was 1390 nM.

The test is the same for the next values; noted with them: whole rat brain; 3H-CP55940; Table 4, parallel synthesis analogs, n = 1.
For `CC(C)=CCC/C(C)=C/CNC(=O)c1nn(-c2ccc(Cl)cc2Cl)c(-c2ccc(Cl)cc2)c1C` [AKS-10262-2], the “Max. Disp. %, 3H-CP55940” value is listed as 84.2%.
On the same count and under the same terms, with `CCCCCC(CC)NC(=O)c1nn(-c2ccc(Cl)cc2Cl)c(-c2ccc(Cl)cc2)c1C` (stereo not drawn) [AKS-10262-5] the figure was 89.5%.
Still for that read-out and setting: with `CCCCCCCCCCNC(=O)c1nn(-c2ccc(Cl)cc2Cl)c(-c2ccc(Cl)cc2)c1C` [BT-1] the figure was 83.6%.

Still in this test, the particulars now being: whole rat brain; 3H-SR141716A; Table 4, parallel synthesis analogs, n = 1.
As to `CC(C)=CCC/C(C)=C/CNC(=O)c1nn(-c2ccc(Cl)cc2Cl)c(-c2ccc(Cl)cc2)c1C` [AKS-10262-2], the “Max. Disp. %, 3H-SR141716A” value came to 95.7%.
On the same count and under the same terms, in the case of `CCCCCC(CC)NC(=O)c1nn(-c2ccc(Cl)cc2Cl)c(-c2ccc(Cl)cc2)c1C` (stereo not drawn) [AKS-10262-5] it was 95.7%.
On the same count and under the same terms, with `CCCCCCCCCCNC(=O)c1nn(-c2ccc(Cl)cc2Cl)c(-c2ccc(Cl)cc2)c1C` [BT-1] the figure was 92.5%.

The test is the same for the next values; noted with them: whole rat brain; 3H-WIN55212-2; Table 4, parallel synthesis analogs, n = 1.
Take `CC(C)=CCC/C(C)=C/CNC(=O)c1nn(-c2ccc(Cl)cc2Cl)c(-c2ccc(Cl)cc2)c1C` [AKS-10262-2]: the “Max. Disp. %, 3H-WIN55212-2” value came to 89.0%.
On to `CCCCCC(CC)NC(=O)c1nn(-c2ccc(Cl)cc2Cl)c(-c2ccc(Cl)cc2)c1C` (stereo not drawn) [AKS-10262-5], for which the “Max. Disp. %, 3H-WIN55212-2” value amounted to 85.1%.
The same measure, in the same setting: with `CCCCCCCCCCNC(=O)c1nn(-c2ccc(Cl)cc2Cl)c(-c2ccc(Cl)cc2)c1C` [BT-1] the figure was 67.4%.

The next test has as its target T2, human CB1 receptor (Homo sapiens, UniProt P21554).
T2 construct: expressed in transfected cells; host or cells: HEK-293
Kind of test: Radioligand displacement in human CB1 receptor-transfected cells (HEK-293). The format is binding.
Conditions: not given
Here is the method:
Human CB1 receptor affinity. The alkyl amide analogs of the present invention were examined using transfected cell lines expressing the human CB1 receptor (Table 3).
Methods—binding assay in transfected cell lines. The methods used for performing binding assays in transfected cells expressing human CB1 or CB2 receptors are those used above. The CB1 receptor involved a HEK-293 expression system whereas the CB2 receptor was expressed in CHO-K1 cells. […] The incubations and separations were then performed as described above for rat brain membrane preparations.
as §1, §2
A general note: Loss of bound radioactivity is the signal in a displacement assay; it reports binding, not function.
Take `CCCCCCCCCCNC(=O)c1nn(-c2ccc(Cl)cc2Cl)c(-c2ccc(Cl)cc2)c1C` [BT-1]: the “Max. Disp. %, 3H-CP55940” value is 94.5%; the “Max. Disp. %, 3H-SR141716A” value turned out to be 95.4%; the “Max. Disp. %, 3H-WIN55212-2” value came to 12.4%.

Staying with this test, now noted: Ki, displacement of 3H-CP55940.
On to `CCCCCCCCCCNC(=O)c1nn(-c2ccc(Cl)cc2Cl)c(-c2ccc(Cl)cc2)c1C` [BT-1], for which the Ki was 184 nM.

Staying with this test, now noted: Ki, displacement of 3H-CP55940, human CB1 transfected cells; 3H-CP55940; Table 5, parallel synthesis analogs, concentration assumes 100% yield.
`CC(C)=CCC/C(C)=C/CNC(=O)c1nn(-c2ccc(Cl)cc2Cl)c(-c2ccc(Cl)cc2)c1C` [AKS-10262-2] displayed a Ki of 26.8 nM.
Still for that read-out and setting: in the case of `CCCCCC(CC)NC(=O)c1nn(-c2ccc(Cl)cc2Cl)c(-c2ccc(Cl)cc2)c1C` (stereo not drawn) [AKS-10262-5] it was 9.6 nM.

The test is the same for the next values; noted with them: Ki, displacement of 3H-SR141716A.
The compound `CCCCCCCCCCNC(=O)c1nn(-c2ccc(Cl)cc2Cl)c(-c2ccc(Cl)cc2)c1C` [BT-1] returned a Ki of 24.6 nM.

Still in this test, the particulars now being: Ki, displacement of 3H-SR141716A, human CB1 transfected cells; 3H-SR141716A; Table 5, parallel synthesis analogs, concentration assumes 100% yield.
In turn, `CC(C)=CCC/C(C)=C/CNC(=O)c1nn(-c2ccc(Cl)cc2Cl)c(-c2ccc(Cl)cc2)c1C` [AKS-10262-2] showed a Ki of 6.8 nM.
Take `CCCCCC(CC)NC(=O)c1nn(-c2ccc(Cl)cc2Cl)c(-c2ccc(Cl)cc2)c1C` (stereo not drawn) [AKS-10262-5]: the affinity, expressed as Ki, was 3.8 nM.

The same test, now with this note: Ki, displacement of 3H-WIN55212-2.
The compound `CCCCCCCCCCNC(=O)c1nn(-c2ccc(Cl)cc2Cl)c(-c2ccc(Cl)cc2)c1C` [BT-1] showed an inhibition constant (Ki) of 63.8 nM.

Staying with this test, now noted: Ki, displacement of 3H-WIN55212-2, human CB1 transfected cells; 3H-WIN55212-2; Table 5, parallel synthesis analogs, concentration assumes 100% yield.
Compound `CC(C)=CCC/C(C)=C/CNC(=O)c1nn(-c2ccc(Cl)cc2Cl)c(-c2ccc(Cl)cc2)c1C` [AKS-10262-2] displayed a Ki of 211 nM.
In turn, `CCCCCC(CC)NC(=O)c1nn(-c2ccc(Cl)cc2Cl)c(-c2ccc(Cl)cc2)c1C` (stereo not drawn) [AKS-10262-5] registered a Ki of 78.6 nM.

The test is the same for the next values; noted with them: human CB1 transfected cells; 3H-CP55940; Table 5, parallel synthesis analogs.
For `CC(C)=CCC/C(C)=C/CNC(=O)c1nn(-c2ccc(Cl)cc2Cl)c(-c2ccc(Cl)cc2)c1C` [AKS-10262-2], the “Max. Disp. %, 3H-CP55940” value is given as 84.2%.
On the same count and under the same terms, with `CCCCCC(CC)NC(=O)c1nn(-c2ccc(Cl)cc2Cl)c(-c2ccc(Cl)cc2)c1C` (stereo not drawn) [AKS-10262-5] the figure was 91.4%.

The test is the same for the next values; noted with them: human CB1 transfected cells; 3H-SR141716A; Table 5, parallel synthesis analogs.
`CC(C)=CCC/C(C)=C/CNC(=O)c1nn(-c2ccc(Cl)cc2Cl)c(-c2ccc(Cl)cc2)c1C` [AKS-10262-2]: the “Max. Disp. %, 3H-SR141716A” value is listed as 95.7%.
For the compound `CCCCCC(CC)NC(=O)c1nn(-c2ccc(Cl)cc2Cl)c(-c2ccc(Cl)cc2)c1C` (stereo not drawn) [AKS-10262-5], the “Max. Disp. %, 3H-SR141716A” value stood at 95.9%.

The same test, now with this note: human CB1 transfected cells; 3H-WIN55212-2; Table 5, parallel synthesis analogs.
As to `CC(C)=CCC/C(C)=C/CNC(=O)c1nn(-c2ccc(Cl)cc2Cl)c(-c2ccc(Cl)cc2)c1C` [AKS-10262-2], the “Max. Disp. %, 3H-WIN55212-2” value amounted to 78.3%.
For `CCCCCC(CC)NC(=O)c1nn(-c2ccc(Cl)cc2Cl)c(-c2ccc(Cl)cc2)c1C` (stereo not drawn) [AKS-10262-5], the “Max. Disp. %, 3H-WIN55212-2” value was determined as 100%.

For the origin of these results see US6825209B2, “Compounds having unique CB1 receptor binding selectivity and methods for their production and use” (Research Triangle Institute, priority 2002, dated 2004).
